Assay results taken from patent US20260242393A1, “Preparation Method for and Use of Dihydrothienopyrimidine Derivative” (Innovstone Therapeutics Limited, priority 2023, published 2026).
Read-outs that look alike come from different tables or passages of the source.

Target: T1, PDE4B2 (Homo sapiens, UniProt Q07343)
T1 construct: purchased BPS bioscience
Test: In vitro PDE4B2 enzyme inhibitory activity (AMP-Glo)
Type: biochemical

[1] = PDE4B2 enzyme inhibition, read-out: PDE4B2 IC50
[2] = read-out: IC50 values of PDE4B2 enzyme inhibition

T1 sequence (Q07343 1-564 isoform Q07343-2): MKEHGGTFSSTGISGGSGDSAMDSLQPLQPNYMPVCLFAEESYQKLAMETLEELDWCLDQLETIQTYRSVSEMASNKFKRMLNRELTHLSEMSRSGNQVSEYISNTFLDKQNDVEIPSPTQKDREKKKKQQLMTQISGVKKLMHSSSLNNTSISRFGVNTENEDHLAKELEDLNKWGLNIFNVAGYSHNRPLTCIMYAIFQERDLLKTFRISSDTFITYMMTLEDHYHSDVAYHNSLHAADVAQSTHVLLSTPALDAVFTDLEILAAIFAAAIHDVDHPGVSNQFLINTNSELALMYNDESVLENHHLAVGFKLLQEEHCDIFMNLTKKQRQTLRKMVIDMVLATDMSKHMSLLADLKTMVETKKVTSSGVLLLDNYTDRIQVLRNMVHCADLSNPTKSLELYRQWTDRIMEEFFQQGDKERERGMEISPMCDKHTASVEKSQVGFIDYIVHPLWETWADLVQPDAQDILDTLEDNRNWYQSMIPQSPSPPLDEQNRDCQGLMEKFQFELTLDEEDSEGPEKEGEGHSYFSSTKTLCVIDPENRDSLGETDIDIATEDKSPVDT

Row | SMILES | IC50 [1] | IC50 [2]
1 | [O-][S+]1CCc2nc(N3Cc4ccc(OC(F)F)cc4C3)nc(NC3(CO)CCC3)c21 (racemic) [Compound 87, (R/S)-2-(5-(difluoromethoxy)isoindolin-2-yl)-4-((1-(hydroxymethyl)cyclobutyl)amino)-6,7-dihydrothieno[3,2-d]pyrimidine 5-oxide] | 2 to 5 nM | 
2 | [O-][S+]1CCc2nc(N3Cc4ccc(C(F)F)cc4C3)nc(NC3(CO)CCC3)c21 (racemic) [Compound 91, (R/S)-2-(5-(difluoromethyl)isoindolin-2-yl)-4-((1-(hydroxymethyl)cyclobutyl)amino)-6,7-dihydrothieno[3,2-d]pyrimidine 5-oxide] | 2 to 5 nM | 
3 | COC1(c2ccc(OC(F)F)cc2)CN(c2nc3c(c(NC4(CO)CCC4)n2)[S+]([O-])CC3)C1 (racemic) [Compound 105, (R/S)-2-(3-(4-(difluoromethoxy)phenyl)-3-methoxyazetidin-1-yl)-4-((1-(hydroxymethyl)cyclobutyl)amino)-6,7-dihydrothieno[3,2-d]pyrimidine 5-oxide] | ≤ 2 nM | < 1 nM
4 | COC1(c2ccc(N3CCCC3)cc2)CN(c2nc3c(c(NC4(CO)CCC4)n2)[S+]([O-])CC3)C1 (racemic) [Compound 107, (R/S)-4-((1-(hydroxymethyl)cyclobutyl)amino)-2-(3-methoxy-3-(4-(pyrrolidin-1-yl)phenyl)azetidin-1-yl)-6,7-dihydrothieno[3,2-d]pyrimidine 5-oxide] | ≤ 2 nM | < 1 nM

The remaining lines, values ahead:

Row | IC50 [1] | IC50 [2] | SMILES
5 | ≤ 2 nM | < 1 nM | COC1(c2ccc(Cl)c(F)c2)CN(c2nc3c(c(NC4CCOCC4)n2)[S+]([O-])CC3)C1 (racemic) [Compound 86, (R/S)-2-(3-(4-chloro-3-fluorophenyl)-3-methoxyazetidin-1-yl)-4-((tetrahydro-2H-pyran-4-yl)amino)-6,7-dihydrothieno[3,2-d]pyrimidine 5-oxide]
6 | ≤ 2 nM | < 1 nM | COC1(c2ccc(Cl)cc2)CN(c2nc3c(c(NC4CCOCC4)n2)[S+]([O-])CC3)C1 (racemic) [Compound 88, (R/S)-2-(3-(4-chlorophenyl)-3-methoxyazetidin-1-yl)-4-((tetrahydro-2H-pyran-4-yl)amino)-6,7-dihydrothieno[3,2-d]pyrimidine 5-oxide]
7 | ≤ 2 nM | < 1 nM | [2H]C([2H])([2H])OC1(c2ccc(Cl)cc2)CN(c2nc3c(c(NC4(CO)CCC4)n2)[S+]([O-])CC3)C1 (racemic) [Compound 92, (R/S)-2-(3-(4-chlorophenyl)-3-(methoxy-d3)azetidin-1-yl)-4-((1-(hydroxymethyl)cyclobutyl)amino)-6,7-dihydrothieno[3,2-d]pyrimidine 5-oxide]
8 | ≤ 2 nM | < 1 nM | [2H]C([2H])([2H])OC1(c2ccc(Cl)cc2)CN(c2nc3c(c(NC4CCOCC4)n2)[S+]([O-])CC3)C1 (racemic) [Compound 94, (R/S)-2-(3-(4-chlorophenyl)-3-(methoxy-d3)azetidin-1-yl)-4-((tetrahydro-2H-pyran-4-yl)amino)-6,7-dihydrothieno[3,2-d]pyrimidine 5-oxide]
9 | ≤ 2 nM | < 1 nM | COc1ccc(C2(OC)CN(c3nc4c(c(NC5(CO)CCC5)n3)[S+]([O-])CC4)C2)cc1 (racemic) [Compound 100, (R/S)-4-((1-(hydroxymethyl)cyclobutyl)amino)-2-(3-methoxy-3-(4-methoxyphenyl)azetidin-1-yl)-6,7-dihydrothieno[3,2-d]pyrimidine 5-oxide]
10 | ≤ 2 nM |  | COC1(c2ccc(OCC3CC3)cc2)CN(c2nc3c(c(NC4(CO)CCC4)n2)[S+]([O-])CC3)C1 (racemic) [Compound 106, (R/S)-2-(3-(4-(cyclopropylmethoxy)phenyl)-3-methoxyazetidin-1-yl)-4-((1-(hydroxymethyl)cyclobutyl)amino)-6,7-dihydrothieno[3,2-d]pyrimidine 5-oxide]
